Assays:
Melanocortin receptor 4 [1] = target: T1, Melanocortin receptor 4 (Homo sapiens, UniProt P32245); test: Agonistic activity measured as […] cAMP accumulation in HEK cells expressing human Melanocortin 4 receptor (hMC4R); type: functional, cell-based, HEK293
Melanocortin receptor 4 [2] = target: T1, Melanocortin receptor 4; test: cAMP accumulation in HEK cells transfected with human melanocortin 4 receptor (hMC4R) with respect to alpha-MSH; type: functional, cell-based; details: HEK293
Melanocortin receptor 4 [3] = target: T1, Melanocortin receptor 4; test: cAMP accumulation in HEK cells transfected with human Melanocortin 4 receptor (hMC4R) with respect to alpha-MSH; type: functional, cell-based; details: HEK293
Melanocortin receptor 5 = Melanocortin receptor 5 (Homo sapiens, UniProt P33032); test: In vitro cAMP accumulation in HEK cells transfected with human Melanocortin 5 receptor (hMC5R); type: functional, cell-based, HEK293
Melanocortin receptor 3 = Melanocortin receptor 3 (Homo sapiens, UniProt P41968); test: In vitro cAMP accumulation in HEK cells transfected with human Melanocortin 3 receptor (hMC3R); type: functional, cell-based, HEK293
Melanocortin receptor 4 [4] = target: Melanocortin receptor 4 (Mus musculus, UniProt P56450); test: In vitro cAMP accumulation in Y1 cells transfected with mouse Melanocortin 4 receptor (mMC4R); type: functional, cell-based
[5] = target: Melanocyte-stimulating hormone receptor (Homo sapiens, UniProt Q01726); test: In vitro cAMP accumulation in HEK cells transfected with human Melanocortin 1 receptor (hMC1R); type: functional, cell-based, HEK293
[6] = target: Adrenocorticotropic hormone receptor (Mus musculus, UniProt Q64326); test: In vitro cAMP accumulation in Y1 cells transfected with mouse Melanocortin 2 receptor (mMC2R); type: functional, cell-based
Adrenocorticotropic hormone receptor, sequence (Q64326 whole entry): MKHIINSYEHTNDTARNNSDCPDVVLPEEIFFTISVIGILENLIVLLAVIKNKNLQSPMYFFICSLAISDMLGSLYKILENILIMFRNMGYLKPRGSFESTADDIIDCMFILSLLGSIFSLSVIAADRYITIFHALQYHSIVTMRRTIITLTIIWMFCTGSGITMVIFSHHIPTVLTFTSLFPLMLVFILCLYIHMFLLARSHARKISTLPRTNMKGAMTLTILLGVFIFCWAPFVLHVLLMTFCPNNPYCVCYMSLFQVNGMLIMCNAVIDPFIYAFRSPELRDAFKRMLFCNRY

Melanocortin receptor 4 (Mus musculus, UniProt P56450), sequence (P56450 whole entry): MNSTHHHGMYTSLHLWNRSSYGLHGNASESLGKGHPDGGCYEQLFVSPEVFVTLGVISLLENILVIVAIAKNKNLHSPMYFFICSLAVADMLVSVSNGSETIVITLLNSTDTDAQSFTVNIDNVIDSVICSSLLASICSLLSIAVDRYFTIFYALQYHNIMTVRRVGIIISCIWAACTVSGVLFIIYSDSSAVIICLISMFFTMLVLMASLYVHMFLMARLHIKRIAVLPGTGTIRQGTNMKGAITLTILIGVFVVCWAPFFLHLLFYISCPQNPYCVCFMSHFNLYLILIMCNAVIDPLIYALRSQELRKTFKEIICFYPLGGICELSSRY
Melanocortin receptor 5, sequence (P33032 whole entry): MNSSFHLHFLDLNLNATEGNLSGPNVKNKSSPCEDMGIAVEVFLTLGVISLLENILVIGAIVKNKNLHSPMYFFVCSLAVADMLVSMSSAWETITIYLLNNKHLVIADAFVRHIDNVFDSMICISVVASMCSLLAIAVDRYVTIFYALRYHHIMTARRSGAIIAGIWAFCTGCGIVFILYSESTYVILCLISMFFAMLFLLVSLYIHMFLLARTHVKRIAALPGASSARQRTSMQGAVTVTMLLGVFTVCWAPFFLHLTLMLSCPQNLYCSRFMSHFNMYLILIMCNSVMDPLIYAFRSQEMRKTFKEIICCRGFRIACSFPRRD
T1 sequence (P32245 whole entry): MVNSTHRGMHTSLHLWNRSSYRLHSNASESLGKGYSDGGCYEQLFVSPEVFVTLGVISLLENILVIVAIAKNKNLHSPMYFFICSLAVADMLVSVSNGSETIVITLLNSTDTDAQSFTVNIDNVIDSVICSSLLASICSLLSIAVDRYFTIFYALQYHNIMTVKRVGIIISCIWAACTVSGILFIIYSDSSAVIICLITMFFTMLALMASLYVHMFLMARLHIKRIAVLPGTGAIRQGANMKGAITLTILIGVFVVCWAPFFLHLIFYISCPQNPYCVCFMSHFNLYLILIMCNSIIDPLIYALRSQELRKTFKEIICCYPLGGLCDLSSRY
Melanocortin receptor 3, sequence (P41968 whole entry): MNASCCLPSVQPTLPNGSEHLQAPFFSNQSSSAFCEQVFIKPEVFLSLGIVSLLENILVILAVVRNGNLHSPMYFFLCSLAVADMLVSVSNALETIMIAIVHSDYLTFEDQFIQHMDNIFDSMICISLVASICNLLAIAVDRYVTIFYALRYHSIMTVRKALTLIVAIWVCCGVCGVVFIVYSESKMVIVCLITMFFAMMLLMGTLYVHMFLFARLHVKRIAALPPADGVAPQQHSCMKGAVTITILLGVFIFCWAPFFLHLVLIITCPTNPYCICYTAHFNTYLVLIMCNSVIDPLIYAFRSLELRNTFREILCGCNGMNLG
Melanocyte-stimulating hormone receptor, sequence (Q01726 whole entry): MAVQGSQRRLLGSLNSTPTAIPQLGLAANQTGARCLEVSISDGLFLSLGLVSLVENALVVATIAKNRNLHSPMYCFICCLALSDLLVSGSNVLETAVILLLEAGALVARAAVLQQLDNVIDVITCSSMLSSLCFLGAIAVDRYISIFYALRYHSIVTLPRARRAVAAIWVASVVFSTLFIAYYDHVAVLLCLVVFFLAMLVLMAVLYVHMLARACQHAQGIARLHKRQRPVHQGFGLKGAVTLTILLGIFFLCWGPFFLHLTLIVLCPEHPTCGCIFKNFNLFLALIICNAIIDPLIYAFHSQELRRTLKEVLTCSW

Row | EC50 (Melanocortin receptor 4 [1]) [µM] | Stimulation (Melanocortin receptor 4 [2]) [%] | SMILES | other results
1 | 0.38 | 100 | CS(=O)(=O)Nc1ccccc1N1CCN(C(=O)[C@@H](Cc2ccc(Cl)cc2)NC(=O)[C@H]2Cc3ccccc3CN2)CC1 | –
2 | 0.65 | 24 | CCOC(=O)NC(=O)Nc1ccccc1N1CCN(C(=O)[C@@H](Cc2ccc(Cl)cc2)NC(=O)[C@H]2Cc3ccccc3CN2)CC1 | –
3 | 0.44 | 85 | CC(C)S(=O)(=O)Nc1ccccc1N1CCN(C(=O)[C@@H](Cc2ccc(Cl)cc2)NC(=O)[C@H]2Cc3ccccc3CN2)CC1 | –
4 | – | – | O=C(Nc1ccccc1N1CCN(C(=O)[C@@H](Cc2ccc(Cl)cc2)NC(=O)[C@H]2Cc3ccccc3CN2)CC1)C1CC1 | Fold stimulation (Melanocortin receptor 4 [3]): 21%
5 | 0.024 | 100 | O=C(N[C@H](Cc1ccc(Cl)cc1)C(=O)N1CCN(c2ccccc2Cn2cnnc2)CC1)[C@H]1Cc2ccccc2CN1 | EC50 (Melanocortin receptor 5): > 3 µM; EC50 (Melanocortin receptor 3): > 3 µM; EC50 (Melanocortin receptor 4 [4]): 0.038 µM; EC50 [5]: > 3 µM; EC50 [6]: > 10 µM
6 | 0.17 | 100 | O=C(N[C@H](Cc1ccc(Cl)cc1)C(=O)N1CCN(c2c(Cn3cncn3)ccc3ccccc23)CC1)[C@H]1Cc2ccccc2CN1 | –
7 | 0.11 | 100 | COc1ccc(Cn2cncn2)c(N2CCN(C(=O)[C@@H](Cc3ccc(Cl)cc3)NC(=O)[C@H]3Cc4ccccc4CN3)CC2)c1 | –
8 | 1 | 100 | CCC(C)N(Cc1ccccc1N1CCN(C(=O)[C@@H](Cc2ccc(Cl)cc2)NC(=O)[C@H]2Cc3ccccc3CN2)CC1)S(C)(=O)=O (stereo partly drawn) | –
9 | 2.1 | 68 | CCOC(=O)CNC(=O)Nc1ccccc1N1CCN(C(=O)[C@@H](Cc2ccc(Cl)cc2)NC(=O)[C@H]2Cc3ccccc3CN2)CC1 | –
10 | 0.6 | 34 | COCC(=O)Nc1ccccc1N1CCN(C(=O)[C@@H](Cc2ccc(Cl)cc2)NC(=O)[C@H]2Cc3ccccc3CN2)CC1 | –
11 | 0.68 | 100 | O=C(N[C@H](Cc1ccc(Cl)cc1)C(=O)N1CCN(c2ccc(C(F)(F)F)cc2Cn2cncn2)CC1)[C@H]1Cc2ccccc2CN1 | –
12 | – | – | CN(C)C(=O)Nc1ccccc1N1CCN(C(=O)[C@@H](Cc2ccc(Cl)cc2)NC(=O)[C@H]2Cc3ccccc3CN2)CC1 | Fold stimulation (Melanocortin receptor 4 [3]): 7%
13 | 1 | 62 | O=C(NCc1ccccc1)Nc1ccccc1N1CCN(C(=O)[C@@H](Cc2ccc(Cl)cc2)NC(=O)[C@H]2Cc3ccccc3CN2)CC1 | –
14 | 4.4 | 34 | O=C(N[C@H](Cc1ccc(Cl)cc1)C(=O)N1CCN(c2ccccc2NS(=O)(=O)C(F)(F)F)CC1)[C@H]1Cc2ccccc2CN1 | –
15 | 1.9 | 64 | CC(=O)Nc1ccccc1N1CCN(C(=O)[C@@H](Cc2ccc(Cl)cc2)NC(=O)[C@H]2Cc3ccccc3CN2)CC1 | –
16 | – | 100 | O=C(N[C@H](Cc1ccc(Cl)cc1)C(=O)N1CCC(Cn2cncn2)(C2CCCCC2)CC1)[C@H]1Cc2ccccc2CN1 | EC50 (Melanocortin receptor 5): 2.7 µM; EC50 (Melanocortin receptor 4 [4]): 0.0076 µM; EC50 [6]: > 10 µM
17 | 0.52 | 100 | CN(c1ccccc1N1CCN(C(=O)[C@@H](Cc2ccc(Cl)cc2)NC(=O)[C@H]2Cc3ccccc3CN2)CC1)S(C)(=O)=O | –
18 | 0.38 | 100 | CC(C)CN(Cc1ccccc1N1CCN(C(=O)[C@@H](Cc2ccc(Cl)cc2)NC(=O)[C@H]2Cc3ccccc3CN2)CC1)S(C)(=O)=O | –
19 | 1.1 | 83 | O=C(Nc1ccccc1N1CCN(C(=O)[C@@H](Cc2ccc(Cl)cc2)NC(=O)[C@H]2Cc3ccccc3CN2)CC1)c1cccnc1 | –
20 | 2.4 | 100 | CC(C)(C)CN(Cc1ccccc1N1CCN(C(=O)[C@@H](Cc2ccc(Cl)cc2)NC(=O)[C@H]2Cc3ccccc3CN2)CC1)S(C)(=O)=O | –
21 | 1.6 | 55 | COC(=O)C(=O)Nc1ccccc1N1CCN(C(=O)[C@@H](Cc2ccc(Cl)cc2)NC(=O)[C@H]2Cc3ccccc3CN2)CC1 | –
22 | 0.47 | 70 | O=C(N[C@H](Cc1ccc(Cl)cc1)C(=O)N1CCN(c2cccc(Cl)c2Cn2cncn2)CC1)[C@H]1Cc2ccccc2CN1 | –
23 | 0.08 | 100 | O=C(N[C@H](Cc1ccc(Cl)cc1)C(=O)N1CCN(c2ccccc2Cn2cncn2)CC1)[C@H]1Cc2ccccc2CN1 | EC50 (Melanocortin receptor 5): > 3 µM; EC50 (Melanocortin receptor 3): > 3 µM; EC50 (Melanocortin receptor 4 [4]): 0.059 µM; EC50 [5]: > 3 µM; EC50 [6]: > 10 µM
24 | – | – | O=C(Nc1ccccc1N1CCN(C(=O)[C@@H](Cc2ccc(Cl)cc2)NC(=O)[C@H]2Cc3ccccc3CN2)CC1)c1ccncc1 | Fold stimulation (Melanocortin receptor 4 [3]): 30%
25 | 2.2 | 100 | CCC(CC)N(Cc1ccccc1N1CCN(C(=O)[C@@H](Cc2ccc(Cl)cc2)NC(=O)[C@H]2Cc3ccccc3CN2)CC1)S(C)(=O)=O | –
26 | 0.69 | 100 | CCN(Cc1ccccc1N1CCN(C(=O)[C@@H](Cc2ccc(Cl)cc2)NC(=O)[C@H]2Cc3ccccc3CN2)CC1)S(C)(=O)=O | –
27 | 0.19 | 100 | CS(=O)(=O)N1CC2(CCN(C(=O)[C@@H](Cc3ccc(Cl)cc3)NC(=O)[C@H]3Cc4ccccc4CN3)CC2)c2ccccc21 | –

From ChEMBL document CHEMBL1145880, “Aryl piperazine melanocortin MC4 receptor agonists” (Bioorg Med Chem Lett, 2003)
